Results as given in patent publication US20170029388A1, “Treatment of Neurodegenerative Diseases with Asparagine Endopeptidase (AEP) Inhibitors and Compositions Related Thereto” (INTERCONTINENTAL GREAT BRANDS LLC, priority 2014, published 2017).
“Also recorded” adds a separate entry of the source.

Legend:
[1] = target: Cathepsin-L (Homo sapiens, UniProt P07711); test: Cathepsin-L enzymatic assay (specificity); type: biochemical
Protocol: Purified recombinant enzyme was incubated with various concentrations of inhibitor in appropriate assay buffers in the presence of increasing concentrations of inhibitor. The formation of fluorescent product was monitored in duplicate reactions and the data was fit to appropriate equations to calculate the IC50 values.
To identify small-molecule inhibitors of AEP, a high-throughput screen was designed in conjunction with the Emory Chemical Biology Discovery Center. The screen incorporated mouse kidney lysates to assay a 54,384 compound library. […] Additional structural analysis and grouping allowed the compounds to be sorted into 8 distinct backbone families. […] The specificity of the compounds was also determined using four major cysteine proteases (FIG. 2).
Cathepsin-L—100 nM enzyme was pre-incubated with inhibitor in assay buffer (100 mM Sodium Acetate pH 5.5, 1 mM EDTA) for 10 min at 37° C. The reaction was initiated upon addition of 25 μM substrate (D-Val-Leu-Lys-AMC (Bachem)).

[2] = system: Caspase-3; test: OGD in primary neurons, Caspase activity; type: cell-based; settings: 0.1 μM or 1.0 μM compound
Protocol: (§1) A. AEP activity, measured in primary neuronal cultures with 5 μM Cbz-Ala-Ala-Asn-AMC (x-axis denotes neurons were treated with 0.1 μM or 1.0 μM specified compound). B. Caspase activity, measured in primary neuronal cultures with 5 μM Ac-Asp-Glu-Val-Asp-AMC. C. Cathepsin activity, measured in primary neuronal cultures with 5 μM D-Val-Leu-Lys-AMC. D. Inhibition of APP cleavage. Lysates of primary cortical neurons pre-incubated with compounds for 30 min, underwent OGD for 4 hrs, were reperfused for 18 hrs (normoxia neurons remained at normoxic conditions). E. APP can be cleaved in a dose-dependent manner. Lysates of primary cortical neurons pre-incubated with compounds for 30 min, underwent OGD for 4 hrs, were reperfused for 18 hrs (normoxia neurons remained at normoxic conditions).
(§2) Depriving cells of oxygen and glucose is a cellular model that is employed to trigger acidosis in cultured cells. The efficacy of the compounds in a cellular model of oxygen-glucose deprivation (OGD) was determined in an effort to mimic the effects of stroke in primary cultured neurons. As a result of depriving neurons of oxygen and glucose-containing medium, AEP activity was doubled (FIG. 7A, ‘DMSO-Norm’ compared to ‘DMSO-OGD’), while Caspase-3 and Cathepsin activities remained relatively unchanged. […]

[3] = system: 5XFAD mice; test: Amyloid plaque staining and Aβ ELISA in 5XFAD mice; type: in vivo, mouse; settings: oral once daily for 3 months
Protocol: (§3) A. Thioflavin-S staining of amyloid plaques in the hippocampus (HP), motor cortex (MC), and frontal cortex (FC) of 5XFAD mouse brain sections. Scale bar, 50 μm. B. Quantitative analysis of amyloid plaques. […] F. The percentage of time spent in the target quadrant in the probe trail.
Free-floating 30-μm-thick serial sections were treated with 0.3% hydrogen peroxide for 10 min, and then incubated with anti-AEP-cleaved APP (1:500) or anti-Aβ (1:500) overnight. The signal was developed using Histostain-SP kit (#956543, invitrogen) according to the manufacturer's instructions.
After rinsed in distilled water, the sections were transferred to blocking solution containing 1% sodium hydroxide and 0.9% hydrogen peroxide for 20 min. The sections were incubated for 5 s in 0.25% acidic acid, then washed in distilled water and stained for 5 min with 0.0125% Thioflavin-S in 50% ethanol. The sections were washed with 50% ethanol and placed in distilled water. Then the sections were covered with glass cover using mounting solution.
The mice brains were homogenized in 8X mass of 5 M guanidine HCl/50 mM Tris HCl (pH 8.0), and incubated at room temperature for 3 h. Then the samples were diluted with cold reaction buffer (phosphate buffered saline with 5% BSA and 0.03% Tween 20, supplemented with protease inhibitor cocktail), and centrifuged at 16 000 g for 20 min at 4° C. The supernatant were analysed by human Aβ42 ELISA kit according to the manufacturer's instructions (KHB3441, Invitrogen). The Aβ42 concentrations were determined by comparison with the standard curve.

[4] = system: AEP; test: Oxygen-glucose deprivation (OGD) in primary neurons, AEP activity; type: cell-based; settings: 0.1 μM or 1.0 μM compound
Protocol: as §1, §2

[5] = system: Cathepsin; test: OGD in primary neurons, Cathepsin activity; type: cell-based; settings: 0.1 μM or 1.0 μM compound
Protocol: as §1, §2

[6] = system: 5XFAD mice; test: Morris water maze in 5XFAD mice; type: in vivo, mouse
Text: as §3
Female wild-type and 5XFAD mice maintained on standard drinking water or compound #11 were trained in a round, water-filled tub (52 inch diameter) in an environment rich with extra maze cues. An invisible escape platform was located in a fixed spatial location 1 cm below the water surface independent of a subjects start position on a particular trial. In this manner, subjects needed to utilize extra maze cues to determine the platform's location. At the beginning of each trial, the mouse was placed in the water maze with their paws touching the wall from 1 of 4 different starting positions (N, S, E, W). Each subject was given 4 trials/day for 5 consecutive days with a 15-min inter-trial interval. […] Upon reaching the invisible escape platform, subjects were left on it for an additional 5 s to allow for survey of the spatial cues in the environment to guide future navigation to the platform. After each trial, subjects were dried and kept in a dry plastic holding cage filled with paper towels to allow the subjects to dry off The temperature of the water was monitored every hour so that mice were tested in water that was between 22 and 25° C. Following the 5 days of task acquisition, a probe trial was presented during which time the platform was removed and the percentage of time spent in the quadrant which previously contained the escape platform during task acquisition was measured over 60 s. All trials were analysed for latency, swim path length, and swim speed by means of MazeScan (Clever Sys, Inc.).

Chain of Cathepsin-L (P07711 114-333, species assumed): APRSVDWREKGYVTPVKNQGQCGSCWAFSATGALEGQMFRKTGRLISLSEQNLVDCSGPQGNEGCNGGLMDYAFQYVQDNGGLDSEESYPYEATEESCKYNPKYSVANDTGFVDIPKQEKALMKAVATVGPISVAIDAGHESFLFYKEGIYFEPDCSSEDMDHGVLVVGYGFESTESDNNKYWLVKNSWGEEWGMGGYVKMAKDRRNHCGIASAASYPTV

selectivity for AEP over Cathepsin-L [1]	Structure (SMILES)	Caspase-3 activity in OGD-treated neurons [2]	amyloid plaque deposition (Thioflavin S) ([3]; hippocampus, motor cortex, frontal cortex)	concentration of Aβ 1-40 in brain lysates [3]	concentration of Aβ 1-42 in brain lysates [3]	AEP activity in OGD-treated neurons [4]	Cathepsin activity in OGD-treated neurons [5]	Morris water maze, distance to platform ([6]; 5 acquisition days, vs vehicle)	swim speed ([6]; mouse, in vivo)	Morris water maze probe test, time in target quadrant ([6]; vs vehicle)
about 38 fold	Sc1nnc(Nc2ccccc2)s1 [Compound BB1]	–	–	–	–	–	–	–	–	–
–	Nc1ccc(N2CCOCC2)c2nonc12 [Compound 11]	not observed	decreased; also recorded: attenuated	decreased	decreased	marked dose-dependent decrease	not observed	decreased distance to platform	not altered; also recorded: not affected	spend more time in the target quadrant; also recorded: spent more time in the target quadrant
